Data published in US4784955A, “Immunogen conjugates and the use thereof in a dihydropyridine assay” (Miles Inc., priority 1986, dated 1988).
Where two headings read alike, the source gives them in different places. Values belong to the molecule of their own block, whether it stands above or below them.

Legend:
[1] = system: monoclonal antibody XIIIE82 /H8; assay: Nifedipine radioimmunoassay using monoclonal antibody XIIIE82 /H8-Sepharose 6MB beads; settings: 100 pM [3H]nitrendipine
[2] = system: polyclonal antibodies prepared against the immunogen conjugates; assay: Cross-reactivity with polyclonal antibodies prepared against the immunogen conjugates; assay type: binding
[3] = system: monoclonal antibody XIIIE82 /H8; assay: Binding of radioactive Ca2+ channel blockers to monoclonal antibody XIIIE82 /H8-Sepharose 6MB beads; set-up: species or system mouse; settings: for ability to bind to monoclonal antibody XIIIE82 /H8-Sepharose 6MB beads (in words): 1.0 nM concentration; for CPM Bound / fmoles of Ca2+ channel blocker specifically bound per μg of monoclonal antibody XIIIE82 /H8: [3H]calcium channel blocker 1.0 nM
Procedure: Various radioactive Ca^2+ channel blockers at a 1.0 nM concentration were tested for their ability to bind to monoclonal antibody XIIIE82 /H8-Sepharose 6MB beads.

[4] = system: 1,4-dihydropyridine-specific antibodies; assay: 1,4-Dihydropyridine radioimmunoassay (dextran-coated charcoal separation), nitrendipine standard curve; assay type: binding; settings: 20 pM [3H]nitrendipine; for % B/Bo: 60 min
Procedure: After a 1 hour incubation in the dark at room temperature, the assay tubes were transferred to an ice water bath for 10 min. […] After an additional 12 minutes in the ice bath, the assay tubes were centrifuged for 15 minutes at 850×g in a Beckman TJ-6 centrifuge. A 0.80 ml sample of the clear supernatant was then added to 10 ml of liquid scintillation fluid and counted in a Beckman LS8100 liquid scintillation counter. […] An alternate procedure for the RIA on human plasma samples involves the dilutions of standards in normal pooled human plasma (rather than in bovine serum albumin in saline, as described above) and the use of 0.2 ml aliquots of standard or human plasma samples.

[5] = system: monoclonal antibody XH42 /G1
[6] = biological target: XIIIE82 /H8-monoclonal antibody; assay: Competitive binding assay according to the method of Muller, XIIIE82 /H8; set-up: species or system mouse; settings: [3H]nitrendipine-XIIIE82 /H8-monoclonal antibody complex; read-out: average apparent dissociation constant (Kd)
[7] = biological target: XH42 /Gl monoclonal antibody; assay: Competitive binding assay according to the method of Muller, XH42 /Gl; set-up: species or system mouse; settings: [3H]nitrendipine-XH42 /Gl monoclonal antibody complex; read-out: average apparent dissociation constant (kd)
[8] = system: New Zealand white rabbits; settings: immunized rabbits
[9] = nifedipine standard 3.7 nanograms/ml in final assay mixture
[10] = nifedipine standard 11.2 nanograms/ml
[11] = nifedipine standard 18.7 nanograms/ml
[12] = nifedipine standard 37.3 nanograms/ml
[13] = nifedipine standard 112.0 nanograms/ml
[14] = nifedipine standard 186.7 nanograms/ml
[15] = nifedipine standard 373.4 nanograms/ml
[16] = nifedipine standard 1866.8 nanograms/ml
[17] = nitrendipine standard 18.0 picograms/ml in final assay mixture
[18] = nitrendipine standard 36.0 picograms/ml
[19] = nitrendipine standard 72.0 picograms/ml
[20] = nitrendipine standard 180.0 picograms/ml
[21] = nitrendipine standard 360.0 picograms/ml
[22] = nitrendipine standard 720.0 picograms/ml
[23] = nitrendipine standard 1800.0 picograms/ml
[24] = nitrendipine standard 0.4 nanograms/ml in final assay mixture
[25] = nitrendipine standard 1.1 nanograms/ml
[26] = nitrendipine standard 1.8 nanograms/ml
[27] = nitrendipine standard 3.7 nanograms/ml
[28] = nitrendipine standard 11.0 nanograms/ml
[29] = nitrendipine standard 18.3 nanograms/ml
[30] = nitrendipine standard 37.4 nanograms/ml

Molecule: COC(=O)C1=C(C)NC(C)=C(C(=O)OC)C1c1ccccc1[N+](=O)[O-] [Nifedipine]
% B/Bo [1, 9]: 102.0%
Net CPM [1, 9]: 8010 CPM
% B/Bo [1, 10]: 98.2%
Net CPM [1, 10]: 7708 CPM
% B/Bo [1, 11]: 76.7%
Net CPM [1, 11]: 6027 CPM
% B/Bo [1, 12]: 50.9%
Net CPM [1, 12]: 3998 CPM
% B/Bo [1, 13]: 23.4%
Net CPM [1, 13]: 1837 CPM
% B/Bo [1, 14]: 14.5%
Net CPM [1, 14]: 1138 CPM
% B/Bo [1, 15]: 8.6%
Net CPM [1, 15]: 677 CPM
% B/Bo [1, 16]: 2.4%
Net CPM [1, 16]: 190 CPM

Molecule: COc1ccc([C@@H]2Sc3ccccc3N(CCN(C)C)C(=O)[C@@H]2OC(C)=O)cc1 [diltiazem]
cross-reaction with the antibodies [2]: do not cross-react

Molecule: COc1ccc(CCN(C)CCCC(C#N)(c2ccc(OC)c(OC)c2)C(C)C)cc1OC (centres unmarked) [verapamil]
cross-reaction with the antibodies [2]: do not cross-react

Molecule: COC(=O)C1=C(C)NC(C)=C(C(=O)OC)C1c1ccccc1N=C=S [[^3 H]Nifedipine-Analog, 1,4-dihydro-2,6-dimethyl-4-(2-isothiocyanatophenyl)-3,5-pyridinedicarboxylic acid dimethyl ester]
ability to bind to monoclonal antibody XIIIE82 /H8-Sepharose 6MB beads (in words) [3]: specifically bind
CPM Bound [3]: 26000 CPM
fmoles of Ca2+ channel blocker specifically bound per μg of monoclonal antibody XIIIE82 /H8 [3]: 18.8 fmol/µg

Molecule: CCOC(=O)C1=C(C)NC(C)=C(C(=O)OC)C1c1cccc([N+](=O)[O-])c1 (centres unmarked) [Nitrendipine, 2,6-dimethyl-3-carboethoxy-5-carbomethoxy-4-(3-nitrophenyl)-1,4-dihydropyridine]
Net CPM [4, 17]: 1492 CPM
% B/Bo [4, 17]: 85.4%
Net CPM [4, 18]: 1406 CPM
% B/Bo [4, 18]: 80.5%
Net CPM [4, 19]: 1024 CPM
% B/Bo [4, 19]: 58.6%
Net CPM [4, 20]: 673 CPM
% B/Bo [4, 20]: 38.5%
Net CPM [4, 21]: 482 CPM
% B/Bo [4, 21]: 27.6%
Net CPM [4, 22]: 346 CPM
% B/Bo [4, 22]: 19.8%
Net CPM [4, 23]: 225 CPM
% B/Bo [4, 23]: 12.9%
% B/Bo [5, 24]: 107.1%
Net CPM [5, 24]: 2043 CPM
% B/Bo [5, 25]: 87.8%
Net CPM [5, 25]: 1676 CPM
% B/Bo [5, 26]: 76.3%
Net CPM [5, 26]: 1456 CPM
% B/Bo [5, 27]: 60.2%
Net CPM [5, 27]: 1149 CPM
% B/Bo [5, 28]: 37.6%
Net CPM [5, 28]: 717 CPM
% B/Bo [5, 29]: 28.1%
Net CPM [5, 29]: 535 CPM
% B/Bo [5, 30]: 17.5%
Net CPM [5, 30]: 333 CPM

ability to bind to monoclonal antibody XIIIE82 /H8-Sepharose 6MB beads (in words) [3]: specifically bind
CPM Bound [3]: 9419 CPM
fmoles of Ca2+ channel blocker specifically bound per μg of monoclonal antibody XIIIE82 /H8 [3]: 4.8 fmol/µg
Molecule: COC(=O)C1=C(C)NC(C)=C(C(=O)OC(C)C)C1c1cccc2nonc12 (single isomer, unassigned) [[^3 H]PN200-110]

ability to bind to monoclonal antibody XIIIE82 /H8-Sepharose 6MB beads (in words) [3]: specifically bind
CPM Bound [3]: 59103 CPM
fmoles of Ca2+ channel blocker specifically bound per μg of monoclonal antibody XIIIE82 /H8 [3]: 33.8 fmol/µg
Kd [6]: 26 nM
Kd [7]: 12.5 nM
Molecule: CCOC(=O)C1=C(C)NC(C)=C(C(=O)OC)C1c1cccc([N+](=O)[O-])c1 (centres unmarked) [[^3 H]Nitrendipine, 2,6-dimethyl-3-carboethoxy-5-carbomethoxy-4-(3-nitrophenyl)-1,4-dihydropyridine]

Molecule: Keyhole limpet hemocyanin
time to antibody response [8]: 4 weeks
titer of antiserum of 1,4-dihydropyridine-specific antibodies [8]: highest titer

Molecule: COc1ccc(CCN(C)CCCC(C#N)(c2ccc(OC)c(OC)c2)C(C)C)cc1OC (centres unmarked) [[^3 H]Verapamil]
ability to bind to monoclonal antibody XIIIE82 /H8-Sepharose 6MB beads (in words) [3]: did not bind
CPM Bound [3]: 234 CPM
fmoles of Ca2+ channel blocker specifically bound per μg of monoclonal antibody XIIIE82 /H8 [3]: 0.2 fmol/µg

ability to bind to monoclonal antibody XIIIE82 /H8-Sepharose 6MB beads (in words) [3]: specifically bind
CPM Bound [3]: 57439 CPM
fmoles of Ca2+ channel blocker specifically bound per μg of monoclonal antibody XIIIE82 /H8 [3]: 20.9 fmol/µg
Molecule: COCCOC(=O)C1=C(C)NC(C)=C(C(=O)OC(C)C)C1c1cccc([N+](=O)[O-])c1 (centres unmarked) [[^3 H]Nimodipine]

ability to bind to monoclonal antibody XIIIE82 /H8-Sepharose 6MB beads (in words) [3]: did not bind
CPM Bound [3]: 225 CPM
fmoles of Ca2+ channel blocker specifically bound per μg of monoclonal antibody XIIIE82 /H8 [3]: 0.1 fmol/µg
Molecule: COc1ccc([C@@H]2Sc3ccccc3N(CCN(C)C)C(=O)[C@@H]2OC(C)=O)cc1 [[^3 H]Diltiazem]
